Assay results: PubChem BioAssay (NCI)
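A five-concentration, 48-hour dose response in 96-well plates underlies each endpoint, interpolated linearly between surrounding concentrations. TGI marks complete inhibition of growth.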

Key:
Assay in all cases: NCI tumour cell line growth inhibition, 48 h
[1] = tested on: MDA-N
[2] = tested on: NCI/ADR-RES ovarian
[3] = tested on: SK-OV-3 ovarian
[4] = tested on: SW-620 colon
[5] = tested on: SR leukemia
[6] = tested on: SN12C renal
[7] = tested on: HCC-2998 colon
[8] = tested on: LOX IMVI melanoma
[9] = tested on: NCI-H23 lung
[10] = tested on: UO-31 renal
[11] = tested on: RXF 393 renal
[12] = tested on: COLO 205 colon
[13] = tested on: PC-3 prostate
[14] = tested on: MDA-MB-435
[15] = tested on: EKVX NSCLC
[16] = tested on: SF-295 CNS
[17] = tested on: IGROV1 ovarian
[18] = tested on: SF-268 CNS
[19] = tested on: A498 renal
[20] = tested on: SK-MEL-2 melanoma
[21] = tested on: M14 melanoma
[22] = tested on: NCI-H522 lung
[23] = tested on: UACC-257 melanoma
[24] = tested on: 786-0 renal
[25] = tested on: HT29 colon
[26] = tested on: A549 NSCLC
[27] = tested on: OVCAR-4 ovarian
[28] = tested on: M19-MEL melanoma
[29] = tested on: SNB-19 CNS
[30] = tested on: SNB-75 CNS
[31] = tested on: OVCAR-3 ovarian
[32] = tested on: XF 498 CNS
[33] = tested on: HCT-15 colon
[34] = tested on: NCI-H460 lung
[35] = tested on: NCI-H226 lung
[36] = tested on: TK-10 renal
[37] = tested on: HL-60(TB) leukemia
[38] = tested on: SNB-78 CNS
[39] = tested on: RPMI-8226 leukemia
[40] = tested on: CCRF-CEM leukemia
[41] = tested on: MOLT-4 leukemia
[42] = tested on: DMS 114 small cell lung
[43] = tested on: SF-539 CNS
[44] = tested on: LXFL 529 NSCLC
[45] = tested on: HCT-116 colon
[46] = tested on: HOP-92 NSCLC
[47] = tested on: HOP-62 NSCLC
[48] = tested on: K-562 leukemia
[49] = tested on: MCF7 breast
[50] = tested on: DLD-1 colon
[51] = tested on: SK-MEL-5 melanoma
[52] = tested on: DU-145 prostate
[53] = tested on: ACHN renal
[54] = tested on: HS 578T breast
[55] = tested on: KM12 colon
[56] = tested on: MALME-3M melanoma
[57] = tested on: U251 CNS
[58] = tested on: DMS 273 small cell lung
[59] = tested on: UACC-62 melanoma
[60] = tested on: MDA-MB-231 breast
[61] = tested on: T-47D breast
[62] = tested on: KM20L2 colon
[63] = tested on: BT-549 breast
[64] = tested on: OVCAR-8 ovarian
[65] = tested on: OVCAR-5 ovarian
[66] = tested on: CAKI-1 renal
[67] = tested on: SK-MEL-28 melanoma

C[N+](C)(C)CC1CCc2ccccc2C1=O (centres undefined)
TGI [1]: 12.4 µM
TGI [2]: 42.1 µM
TGI [3]: 32.8 µM
TGI [4]: 3.34 µM
TGI [5]: 9.23 µM
TGI [6]: 16.3 µM
TGI [7]: 28.8 µM
TGI [8]: 41.5 µM
TGI [9]: 29.2 µM
TGI [10]: 32.7 µM
TGI [11]: 29.6 µM
TGI [12]: 19.3 µM
TGI [13]: 29.1 µM
TGI [14]: 11 µM
TGI [15]: 18.2 µM
TGI [16]: 49.2 µM
TGI [17]: 28.7 µM
TGI [18]: 47.4 µM
TGI [19]: 50.4 µM
TGI [20]: 31.2 µM
TGI [21]: 17.9 µM
TGI [22]: 0.318 µM
TGI [23]: 27.1 µM
TGI [24]: 19.2 µM
TGI [25]: 15.2 µM
TGI [26]: 52.3 µM
TGI [27]: 9.67 µM
TGI [28]: 30.8 µM
TGI [29]: 28.9 µM
TGI [30]: 30.7 µM
TGI [31]: 11.8 µM
TGI [32]: 5.56 µM
TGI [33]: 6.61 µM
TGI [34]: 36.7 µM
TGI [35]: 43.3 µM
TGI [36]: 30.5 µM
TGI [37]: 27.1 µM
TGI [38]: 49.4 µM
TGI [39]: 18.4 µM
TGI [40]: > 37.9 µM
TGI [41]: 7.63 µM
TGI [42]: 31 µM
TGI [43]: 29.9 µM
TGI [44]: 8.54 µM
TGI [45]: 18.9 µM
TGI [46]: 15.9 µM
TGI [47]: 49.2 µM
TGI [48]: 21.9 µM
TGI [49]: 5.62 µM
TGI [50]: 17 µM
TGI [51]: 29.7 µM
TGI [52]: 32.6 µM
TGI [53]: 14.4 µM
TGI [54]: 35.4 µM
TGI [55]: 24.8 µM
TGI [56]: 3.68 µM
TGI [57]: 10.2 µM
TGI [58]: 15.1 µM
TGI [59]: 12 µM
TGI [60]: 15.8 µM
TGI [61]: 26.2 µM
TGI [62]: 38.2 µM
TGI [63]: 29.3 µM
TGI [64]: 33.5 µM
TGI [65]: 29.7 µM
TGI [66]: 9.31 µM
TGI [67]: 16.9 µM

O=c1c2ccccc2sc2nc(CCl)nn12
TGI [1]: 17.3 µM
TGI [2]: > 100 µM
TGI [3]: 37.5 µM
TGI [4]: 45.6 µM
TGI [5]: 37.7 µM
TGI [6]: 29.4 µM
TGI [7]: 31.4 µM
TGI [8]: > 100 µM
TGI [9]: 28.5 µM
TGI [10]: 22.8 µM
TGI [11]: 24.5 µM
TGI [12]: 30.2 µM
TGI [13]: 10.7 µM
TGI [14]: 29.6 µM
TGI [15]: 29.1 µM
TGI [16]: > 82.9 µM
TGI [17]: 49.5 µM
TGI [18]: 60.6 µM
TGI [19]: 8.42 µM
TGI [20]: > 100 µM
TGI [21]: 60.3 µM
TGI [22]: 67.8 µM
TGI [23]: 32.9 µM
TGI [24]: 34.1 µM
TGI [25]: 66 µM
TGI [26]: 93 µM
TGI [27]: > 100 µM
TGI [28]: > 62.8 µM
TGI [29]: > 100 µM
TGI [30]: 55.2 µM
TGI [31]: > 100 µM
TGI [32]: 1.82 µM
TGI [33]: 18.7 µM
TGI [34]: 16.5 µM
TGI [35]: > 100 µM
TGI [36]: 25.4 µM
TGI [37]: 44.3 µM
TGI [38]: > 100 µM
TGI [39]: > 100 µM
TGI [40]: > 100 µM
TGI [41]: > 100 µM
TGI [42]: 48.6 µM
TGI [43]: > 80.4 µM
TGI [44]: 62.5 µM
TGI [45]: 16.3 µM
TGI [46]: 14.8 µM
TGI [47]: > 100 µM
TGI [48]: 28.9 µM
TGI [49]: 36.3 µM
TGI [50]: 21.3 µM
TGI [51]: > 100 µM
TGI [52]: 21.2 µM
TGI [53]: 21.6 µM
TGI [54]: 38.1 µM
TGI [55]: > 100 µM
TGI [56]: 49.4 µM
TGI [57]: > 100 µM
TGI [58]: 22.2 µM
TGI [59]: 17 µM
TGI [60]: 23.4 µM
TGI [61]: 19.9 µM
TGI [62]: 38 µM
TGI [63]: > 91.6 µM
TGI [64]: > 100 µM
TGI [65]: > 100 µM
TGI [66]: 22.3 µM
TGI [67]: 28.3 µM
